{"source": "patent US10662223B2", "about": "“Composition for organ, tissue, or cell transplantation, kit, and transplantation method” (GemVax & KAEL Co., Ltd., priority 2014, dated 2020)", "key": {"transplanted lung [1]": {"system": "transplanted lung", "assay": "Rat lung transplantation: wet/dry weight ratio (reperfusion edema)", "assay_type": "in vivo, Sprague-Dawley rat", "conditions": "PERFADEX 50 mL + PEP1 5 mg; lower lobe of transplanted lung", "method": "(§1) The experiment was performed using two rats with the same gene, and lung transplantation was carried out by detaching the left lung from a donor rat and placing the donor's lung in the left thoracic cavity from which an original left lung was removed of the recipient rat. To basically prevent rejection, the rats had the same gene. Both the donor rat and recipient rat had weights of 300 to 350 g, and were the Sprague-Dawley species. Following the extraction of a lung from the donor rat, the lung was transplanted to the recipient rat through surgical procedures.\n(§2) During perfusion, mechanical ventilation was continuously performed to allow uniform lung perfusion.\n(§3) (4) Following the perfusion, trachea was ligated while the lung expanded under the endotracheal intubation, a heart-lung block was extracted, and then peripheral structures such as esophagus were removed on a cold petri-dish. The heart-lung block was weighed, and subjected to cold storage in a perfusion solution, which was the same as the lung perfusion solution. Ischemic duration was set three hours.\n(§4) For the experiment, the lung transplant rats were divided into four groups. […]"}, "[2]": {"system": "renal IR injury mouse model", "assay": "Renal IR injury mouse model: blood urea nitrogen (BUN) and creatine", "assay_type": "in vivo, C57BL/6 mouse", "conditions": "24 hours after IR; 1000 nmol/kg 30 minutes before and 12 hours after IR; compared with PBS control group", "method": "(§5) A renal JR injury mouse model was obtained by inducing IR by bilateral clamping renal pedicles for 30 minutes and restoring blood flow after 30 minutes by removing the clamps. Experimental groups were divided into three groups, which are an administered group (PEP 1), a control group (PBS: without PEP 1 administration), and a Sham group (no bilateral clamping). PEP 1 was subcutaneously injected at a concentration of 1000 nmol/kg 30 minutes before and 12 hours after the IR induction.\n(§6) A C57BL/6 mouse (8-week-old; Charles River Laboratories, Wilmington, Mass.) was used to induce renal IR injury. The renal pedicles were clamped with vascular forceps to block blood flow, and ischemia was induced for […] in the renal IR injury model, followed by reperfusion.\n(§7) The peptide PEP 1 was diluted with PBS to a concentration of 1000 nmol/kg, and then intraperitoneally injected twice, 30 minutes before and 12 hours after the IR.\nBlood was taken 24 hours after the JR and the levels of blood urea nitrogen (BUN) and creatine as renal toxicity markers were measured, renal tissue was taken and prepared into paraffin blocks for immunohistochemical and histological studies, and then proteins were extracted to measure cytokine levels. The creatine concentration and BUN were measured using an autoanalyzer (Technicon RA-1000; Bayer, Tarrytown, N.Y.)."}, "renal tissue": {"system": "renal tissue", "assay": "Renal IR injury mouse model: TUNEL staining, renal apoptosis", "assay_type": "in vivo, C57BL/6 mouse", "conditions": "24 hours after IR; 1000 nmol/kg 30 minutes before and 12 hours after IR; compared with PBS control group", "method": "(§8) A renal JR injury mouse model was obtained by inducing IR by bilateral clamping renal pedicles for 30 minutes and restoring blood flow after 30 minutes by removing the clamps. Experimental groups were divided into three groups, which are an administered group (PEP 1), a control group (PBS: without PEP 1 administration), and a Sham group (no bilateral clamping). PEP 1 was subcutaneously injected at a concentration of 1000 nmol/kg 30 minutes before and 12 hours after the IR induction. A C57BL/6 mouse (8-week-old; Charles River Laboratories, Wilmington, Mass.) was used to induce renal IR injury. The renal pedicles were clamped with vascular forceps to block blood flow, and ischemia was induced for […] in the renal IR injury model, followed by reperfusion. The peptide PEP 1 was diluted with PBS to a concentration of 1000 nmol/kg, and then intraperitoneally injected twice, 30 minutes before and 12 hours after the IR. […] Renal apoptosis was evaluated by staining renal tissue with TUNEL stain 24 hours after the IR. Renal paraffin sections were stained with TUNEL using a TUNEL staining kit (Roche Applied Science, Indianapolis, Ind., USA)."}, "[3]": {"system": "macrophages and neutrophils in renal tissue", "assay": "Renal IR injury mouse model: innate immune cell infiltration by immunohistochemistry (F4/80, Gr-1)", "assay_type": "in vivo, C57BL/6 mouse", "conditions": "24 hours after IR; 1000 nmol/kg 30 minutes before and 12 hours after IR; compared with PBS control group", "method": "as §8, with “Infiltration of innate immune cells” for “Renal apoptosis”, “staining the” for “staining”, “a macrophage maker (F4/80) and a neutrophil maker (Gr-1) through immunohistochemistry” for “TUNEL stain”, “Specifically, infiltrated macrophages and neutrophils” for “Renal paraffin sections”, “with” for “with TUNEL using”, “macrophage-specific antibody (F4/80, abcam., Cambridge, Mass.) by an immunochemical method performed on paraffin-containing sections.” for “TUNEL staining kit (Roche Applied Science, Indianapolis, Ind., USA).”"}, "transplanted lung [4]": {"system": "transplanted lung", "assay": "Rat lung transplantation: H&E staining of alveolar tissue", "assay_type": "in vivo, Sprague-Dawley rat", "method": "as §1, §2, §3, §4"}, "IL-6": {"system": "IL-6", "assay": "Renal IR injury mouse model: IL-6 level in renal tissue", "assay_type": "in vivo, C57BL/6 mouse", "conditions": "24 hours after IR; 1000 nmol/kg 30 minutes before and 12 hours after IR; compared with PBS control group", "method": "as §5, §6, §7\n(§9) Protein was extracted from renal tissue 24 hours after the IR, and IL-6, MCP-1 and TNF-α levels were measured by a cytometric bead array. Mouse IL-6, MCP-1, TNF-α, and an ELISA kit were purchased from R&D Systems, and the experiment was conducted according to the manufacturer's protocol."}, "TNF-α": {"system": "TNF-α", "assay": "Renal IR injury mouse model: TNF-α level in renal tissue", "assay_type": "in vivo, C57BL/6 mouse", "conditions": "24 hours after IR; 1000 nmol/kg 30 minutes before and 12 hours after IR; compared with PBS control group", "method": "as §5, §6, §7, §9"}, "MCP-1": {"system": "MCP-1", "assay": "Renal IR injury mouse model: MCP-1 level in renal tissue", "assay_type": "in vivo, C57BL/6 mouse", "conditions": "24 hours after IR; 1000 nmol/kg 30 minutes before and 12 hours after IR; compared with PBS control group", "method": "as §5, §6, §7, §9"}, "abdominal skin flap": {"system": "abdominal skin flap", "assay": "Flap IR injury rat model: flap survivability", "assay_type": "in vivo, Sprague-Dawley Rat", "conditions": "7 days after IR induction; 10 mg/500 μl intramuscularly 30 minutes before and 1, 2, 3, 4, 5, and 7 days after IR; 7 hours ischemia", "method": "Transplantation of a flap of the rectus abdominis was carried out as follows. An IR injury rat model was obtained by detaching a flap with a size of 5 cm×5 cm from abdominal skin of a white rat (Sprague-Dawley Rat, 180 to 230 g), adding PEP1 or saline to the rat, inducing ischemia through clamping, and restoring blood flow after 7 hours by removing the clamps (refer to FIG. 11).\nExperimental groups were divided into three groups, which are an administered group (PEP 1), a control group (PBS without PEP 1), and a sham group (group in which no IR injury induced). PEP 1 (10 mg/500 μl) or saline (500 Id) was intramuscularly injected 30 minutes before and 1, 2, 3, 4, 5, and 7 days after the IR induction.\nFlap survivability was measured 7 days after the IR induction. The flap survivability was measured through digital image analysis using imageJ program."}, "transplanted lung [5]": {"system": "transplanted lung", "assay": "Rat lung transplantation: analysis of bronchoalveolar lavage fluid (BAL)", "assay_type": "in vivo, Sprague-Dawley rat", "conditions": "PERFADEX 50 mL + PEP1 5 mg", "method": "as §1, §2, §3, §4"}, "[6]": {"conditions": "PERFADEX 50 mL + PEP1 5 mg as lung preservation solution"}}, "note": "“Also recorded” adds a separate entry of the source."}
{"sequence": "EARPALLTSRLRFIPK (listed as Homo sapiens) [PEP 1, 16 aa peptide derived from Homo sapiens telomerase, position [611-626]]", "values": [{"measurement": "reperfusion edema (wet/dry weight ratio) compared with normal saline administered group", "setting": "transplanted lung [1]", "value": "significantly (p<0.05) decreased"}, {"measurement": "reperfusion edema level among the four groups", "setting": "transplanted lung [1]", "value": "lowest level"}, {"measurement": "blood urea nitrogen (BUN) level", "setting": "[2]", "value": "significantly decreased"}, {"measurement": "creatine level", "setting": "[2]", "value": "significantly decreased"}, {"measurement": "TUNEL-positive cells (renal apoptosis)", "setting": "renal tissue", "value": "remarkably decreased"}, {"measurement": "infiltration of macrophages into renal tissue (F4/80)", "setting": "[3]", "value": "remarkably decreased; also recorded: inhibited"}, {"measurement": "infiltration of neutrophils into renal tissue (Gr-1)", "setting": "[3]", "value": "remarkably decreased; also recorded: inhibited"}, {"measurement": "preventing hemorrhage and maintaining the alveolar wall, 5 mg PEP1 rather than 50 mg PEP1", "setting": "transplanted lung [4]; PEP1 added to PERFADEX 50 mL, 5 mg compared with 50 mg", "value": "more effective"}, {"measurement": "alveolar wall of transplanted lung (H&E)", "setting": "transplanted lung [4]; [6]", "value": "did not get harder"}, {"measurement": "hemorrhage in transplanted lung (H&E)", "setting": "transplanted lung [4]; [6]", "value": "rarely occurred"}, {"measurement": "IL-6 level in renal tissue", "setting": "IL-6", "value": "significantly decreased; also recorded: significantly inhibited"}, {"measurement": "TNF-α level in renal tissue", "setting": "TNF-α", "value": "no significant difference"}, {"measurement": "MCP-1 level in renal tissue", "setting": "MCP-1", "value": "significantly decreased; also recorded: significantly inhibited"}, {"measurement": "flap survivability", "setting": "abdominal skin flap", "value": "58.88%±11.44%"}, {"measurement": "expression of inflammatory cells in BAL among the four groups", "setting": "transplanted lung [5]", "value": "lowest expression"}]}
